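Values below derive from 48-hour exposures of cells grown in 96-well plates, with endpoints linearly interpolated between the two concentrations bracketing the appropriate inhibition level. Here, GI50 denotes the concentration required for 50% inhibition of growth.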 Activity calls are given as the source filed them. Rule as the data show it: active = GI50 up to about 1.1 µM and inactive = higher.
What was measured:
Assay in all cases: DTP human tumour cell line panel, 48 h
SF-539 = test system: SF-539
HCT-15 = test system: HCT-15
SR = test system: SR
SK-MEL-28 = test system: SK-MEL-28
SF-295 = test system: SF-295
EKVX = test system: EKVX
RPMI-8226 = test system: RPMI-8226
HCC 2998 = test system: HCC 2998
DMS-114 = test system: DMS-114
IGROV-1 = test system: IGROV-1
DMS-273 = test system: DMS-273
HOP-62 = test system: HOP-62
HCT-116 = test system: HCT-116
LOX IMVI = test system: LOX IMVI
SNB-78 = test system: SNB-78
OVCAR-4 = test system: OVCAR-4
UO-31 = test system: UO-31
Malme-3M = test system: Malme-3M
DLD-1 = test system: DLD-1
HT-29 = test system: HT-29
SK-OV-3 = test system: SK-OV-3
KM12 = test system: KM12
NCI-H23 = test system: NCI-H23
SN12C = test system: SN12C
TK-10 = test system: TK-10
M14 = test system: M14
UACC-257 = test system: UACC-257
K562 = test system: K562
M19-MEL = test system: M19-MEL
COLO 205 = test system: COLO 205
HL-60 = test system: HL-60
XF498 = test system: XF498
NCI-H226 = test system: NCI-H226
MOLT-4 = test system: MOLT-4
SK-MEL-5 = test system: SK-MEL-5
OVCAR-3 = test system: OVCAR-3
786-0 = test system: 786-0
LXFL 529 = test system: LXFL 529
SNB-19 = test system: SNB-19
NCI-H460 = test system: NCI-H460
HOP-92 = test system: HOP-92
SF-268 = test system: SF-268
NCI-H522 = test system: NCI-H522
ACHN = test system: ACHN
CAKI-1 = test system: CAKI-1
CCRF-CEM = test system: CCRF-CEM
UACC-62 = test system: UACC-62
OVCAR-5 = test system: OVCAR-5
A549 = test system: A549
OVCAR-8 = test system: OVCAR-8
U-251 = test system: U-251
KM-20L2 = test system: KM-20L2
SW-620 = test system: SW-620
SK-MEL-2 = test system: SK-MEL-2
DU-145 = test system: DU-145
Hs-578T = test system: Hs-578T
A498 = test system: A498
BT-549 = test system: BT-549
MDA-MB-435 = test system: MDA-MB-435
T47D = test system: T47D
RXF 393 = test system: RXF 393
SNB-75 = test system: SNB-75
MCF7 = test system: MCF7

CC1(c2ccccc2)CC12C(=O)NC(=O)NC2=O (configuration not stated)
GI50 (SF-539): > 100 µM (inactive)
GI50 (HCT-15): > 100 µM
GI50 (SR): > 100 µM (inactive)
GI50 (SK-MEL-28): > 100 µM (inactive)
GI50 (SF-295): > 100 µM (inactive)
GI50 (EKVX): > 100 µM (inactive)
GI50 (RPMI-8226): > 100 µM (inactive)
GI50 (HCC 2998): > 100 µM (inactive)
GI50 (DMS-114): > 100 µM (inactive)
GI50 (IGROV-1): > 100 µM (inactive)
GI50 (DMS-273): > 100 µM (inactive)
GI50 (HOP-62): > 100 µM (inactive)
GI50 (HCT-116): > 100 µM (inactive)
GI50 (LOX IMVI): > 100 µM (inactive)
GI50 (SNB-78): > 100 µM (inactive)
GI50 (OVCAR-4): > 100 µM (inactive)
GI50 (UO-31): > 100 µM (inactive)
GI50 (Malme-3M): > 100 µM (inactive)
GI50 (DLD-1): > 100 µM (inactive)
GI50 (HT-29): > 100 µM (inactive)
GI50 (SK-OV-3): > 100 µM (inactive)
GI50 (KM12): > 100 µM (inactive)
GI50 (NCI-H23): > 100 µM (inactive)
GI50 (SN12C): > 100 µM (inactive)
GI50 (TK-10): > 100 µM (inactive)
GI50 (M14): > 100 µM (inactive)
GI50 (UACC-257): > 100 µM (inactive)
GI50 (K562): > 100 µM (inactive)
GI50 (M19-MEL): > 100 µM (inactive)
GI50 (COLO 205): > 100 µM (inactive)
GI50 (HL-60): > 100 µM (inactive)
GI50 (XF498): > 100 µM (inactive)
GI50 (NCI-H226): > 100 µM (inactive)
GI50 (MOLT-4): > 100 µM (inactive)
GI50 (SK-MEL-5): > 100 µM (inactive)
GI50 (OVCAR-3): > 100 µM (inactive)
GI50 (786-0): > 100 µM (inactive)
GI50 (LXFL 529): > 100 µM (inactive)
GI50 (SNB-19): > 100 µM (inactive)
GI50 (NCI-H460): > 10 µM (inactive)
GI50 (HOP-92): > 100 µM (inactive)
GI50 (SF-268): > 100 µM (inactive)
GI50 (NCI-H522): > 100 µM (inactive)
GI50 (ACHN): > 100 µM (inactive)
GI50 (CAKI-1): > 100 µM (inactive)
GI50 (CCRF-CEM): > 100 µM (inactive)
GI50 (UACC-62): > 100 µM (inactive)
GI50 (OVCAR-5): > 100 µM (inactive)
GI50 (A549): > 100 µM (inactive)
GI50 (OVCAR-8): > 100 µM (inactive)
GI50 (U-251): > 100 µM (inactive)
GI50 (KM-20L2): > 100 µM (inactive)
GI50 (SW-620): > 100 µM (inactive)
GI50 (SK-MEL-2): > 100 µM (inactive)

O=C(Nc1cccc(C(F)(F)F)c1)C(=O)C(C(=O)c1ccc2ccccc2c1)C1OC(=O)c2ccccc21 (configuration not stated)
GI50 (SF-539): 2.23 µM (inactive)
GI50 (HCT-15): 8.13 µM
GI50 (SR): 3.24 µM (inactive)
GI50 (SK-MEL-28): 6.79 µM (inactive)
GI50 (SF-295): 5.19 µM (inactive)
GI50 (EKVX): 14.5 µM (inactive)
GI50 (RPMI-8226): 3.68 µM (inactive)
GI50 (DU-145): 26.5 µM (inactive)
GI50 (Hs-578T): 7.14 µM (inactive)
GI50 (HCC 2998): 10.8 µM (inactive)
GI50 (DMS-114): 6.89 µM (inactive)
GI50 (IGROV-1): 18.2 µM (inactive)
GI50 (A498): 9.93 µM (inactive)
GI50 (BT-549): 14.3 µM (inactive)
GI50 (DMS-273): 6.3 µM (inactive)
GI50 (HOP-62): 11.5 µM (inactive)
GI50 (HCT-116): 6.82 µM (inactive)
GI50 (LOX IMVI): 4.23 µM (inactive)
GI50 (SNB-78): 7.45 µM (inactive)
GI50 (OVCAR-4): 9.12 µM (inactive)
GI50 (UO-31): 12.4 µM (inactive)
GI50 (Malme-3M): 6.81 µM (inactive)
GI50 (DLD-1): 6.35 µM (inactive)
GI50 (MDA-MB-435): 17.4 µM (inactive)
GI50 (HT-29): 13.5 µM (inactive)
GI50 (SK-OV-3): 21.6 µM (inactive)
GI50 (KM12): 12.2 µM (inactive)
GI50 (NCI-H23): 6.46 µM (inactive)
GI50 (SN12C): 13.2 µM (inactive)
GI50 (TK-10): 22.6 µM (inactive)
GI50 (M14): 13 µM (inactive)
GI50 (UACC-257): 11.5 µM (inactive)
GI50 (K562): 5.38 µM (inactive)
GI50 (T47D): 8.99 µM (inactive)
GI50 (M19-MEL): 8.51 µM (inactive)
GI50 (COLO 205): 10.9 µM (inactive)
GI50 (HL-60): 7.69 µM (inactive)
GI50 (XF498): 0.887 µM (active)
GI50 (NCI-H226): 2.89 µM (inactive)
GI50 (MOLT-4): 1.82 µM (inactive)
GI50 (SK-MEL-5): 10.5 µM (inactive)
GI50 (OVCAR-3): 16 µM (inactive)
GI50 (786-0): 4.21 µM (inactive)
GI50 (LXFL 529): 4.82 µM (inactive)
GI50 (SNB-19): 6.25 µM (inactive)
GI50 (RXF 393): 4.16 µM (inactive)
GI50 (NCI-H460): 5.61 µM (inactive)
GI50 (HOP-92): 22.8 µM (inactive)
GI50 (SF-268): 5.05 µM (inactive)
GI50 (NCI-H522): 8.26 µM (inactive)
GI50 (ACHN): 12.6 µM (inactive)
GI50 (CAKI-1): 12.4 µM (inactive)
GI50 (SNB-75): 12 µM (inactive)
GI50 (CCRF-CEM): 3.18 µM (inactive)
GI50 (UACC-62): 7.53 µM (inactive)
GI50 (OVCAR-5): 14.3 µM (inactive)
GI50 (A549): 10.7 µM (inactive)
GI50 (OVCAR-8): 6.35 µM (inactive)
GI50 (U-251): 4.08 µM (inactive)
GI50 (KM-20L2): 15.8 µM (inactive)
GI50 (MCF7): 7.16 µM (inactive)
GI50 (SW-620): 6.25 µM (inactive)
GI50 (SK-MEL-2): 8.57 µM (inactive)

c1cnn(CN(Cn2cccn2)Cn2cccn2)c1
GI50 (SF-539): > 100 µM (inactive)
GI50 (HCT-15): > 100 µM
GI50 (SR): > 100 µM (inactive)
GI50 (SK-MEL-28): > 100 µM (inactive)
GI50 (SF-295): > 100 µM (inactive)
GI50 (EKVX): > 100 µM (inactive)
GI50 (RPMI-8226): 35.5 µM (inactive)
GI50 (DMS-114): > 100 µM (inactive)
GI50 (A498): > 100 µM (inactive)
GI50 (DMS-273): > 100 µM (inactive)
GI50 (HOP-62): > 100 µM (inactive)
GI50 (HCT-116): > 100 µM (inactive)
GI50 (LOX IMVI): > 100 µM (inactive)
GI50 (SNB-78): > 100 µM (inactive)
GI50 (OVCAR-4): > 100 µM (inactive)
GI50 (UO-31): > 100 µM (inactive)
GI50 (DLD-1): > 100 µM (inactive)
GI50 (SK-OV-3): > 100 µM (inactive)
GI50 (KM12): > 100 µM (inactive)
GI50 (NCI-H23): > 100 µM (inactive)
GI50 (SN12C): > 100 µM (inactive)
GI50 (TK-10): > 100 µM (inactive)
GI50 (M14): > 100 µM (inactive)
GI50 (UACC-257): > 100 µM (inactive)
GI50 (K562): > 100 µM (inactive)
GI50 (M19-MEL): > 100 µM (inactive)
GI50 (COLO 205): > 100 µM (inactive)
GI50 (HL-60): > 100 µM (inactive)
GI50 (XF498): > 100 µM (inactive)
GI50 (MOLT-4): > 100 µM (inactive)
GI50 (SK-MEL-5): > 100 µM (inactive)
GI50 (OVCAR-3): > 100 µM (inactive)
GI50 (786-0): > 100 µM (inactive)
GI50 (SNB-19): > 100 µM (inactive)
GI50 (RXF 393): > 100 µM (inactive)
GI50 (NCI-H460): > 100 µM (inactive)
GI50 (HOP-92): > 100 µM (inactive)
GI50 (SF-268): > 100 µM (inactive)
GI50 (NCI-H522): > 100 µM (inactive)
GI50 (ACHN): > 100 µM (inactive)
GI50 (CAKI-1): > 100 µM (inactive)
GI50 (SNB-75): > 100 µM (inactive)
GI50 (CCRF-CEM): > 100 µM (inactive)
GI50 (UACC-62): 35.9 µM (inactive)
GI50 (A549): > 100 µM (inactive)
GI50 (OVCAR-8): > 100 µM (inactive)
GI50 (U-251): > 100 µM (inactive)
GI50 (KM-20L2): > 100 µM (inactive)
GI50 (SW-620): > 100 µM (inactive)
GI50 (SK-MEL-2): > 100 µM (inactive)
